The target of the assay is T1, prolyl endopeptidase (PEP), rat brain extract (Rattus norvegicus, UniProt O70196).
T1 construct: the supernatant, containing the enzyme, was collected; from tissue; host or cells: rat (Sprague-Dawley, male) whole brain without cerebellum, 40000 g supernatant
T1 sequence (O70196 1-710): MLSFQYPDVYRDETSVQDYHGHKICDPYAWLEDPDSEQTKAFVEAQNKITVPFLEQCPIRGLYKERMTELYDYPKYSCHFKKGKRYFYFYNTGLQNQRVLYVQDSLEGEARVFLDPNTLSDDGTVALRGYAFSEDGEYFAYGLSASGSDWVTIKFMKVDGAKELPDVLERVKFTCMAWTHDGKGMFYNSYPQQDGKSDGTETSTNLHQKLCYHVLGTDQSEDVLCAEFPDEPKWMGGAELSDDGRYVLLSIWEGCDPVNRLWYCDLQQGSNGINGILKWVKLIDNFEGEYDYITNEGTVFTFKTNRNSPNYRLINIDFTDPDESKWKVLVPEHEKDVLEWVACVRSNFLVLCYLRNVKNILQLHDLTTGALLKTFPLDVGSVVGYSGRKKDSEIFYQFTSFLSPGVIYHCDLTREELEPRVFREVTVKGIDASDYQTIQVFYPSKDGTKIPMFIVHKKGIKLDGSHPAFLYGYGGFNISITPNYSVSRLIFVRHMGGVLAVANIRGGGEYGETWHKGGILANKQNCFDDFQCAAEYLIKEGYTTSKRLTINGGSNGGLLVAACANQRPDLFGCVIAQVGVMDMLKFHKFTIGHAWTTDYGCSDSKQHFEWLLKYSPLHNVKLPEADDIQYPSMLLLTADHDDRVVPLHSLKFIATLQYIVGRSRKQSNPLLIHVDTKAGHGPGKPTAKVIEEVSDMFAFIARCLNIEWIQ
As to the kind of experiment: PEP activity measurement on rat brain extract. The note with it: Z-glycyl-prolyl-7-amino-4-methyl-coumarin 62.5 μM, room temperature, 15 min. Format: biochemical, rat (Sprague-Dawley). The procedure:
PEP Activity Measurement on Rat Brain Extract:
After removal of the cerebellum whole brain of male (Sprague-Dawley, 180-200 g) rats was homogenized in a double volume of 0.1 M Tris-HCl, 1 mM EDTA buffer, pH=7.5 (PEP buffer). The homogenate was centrifuged for 30 min. at 4° C. at 40000 g and the supernatant, containing the enzyme, was collected. The pellet was resuspended in the same volume of buffer as in the first case and centrifuged again under the same conditions. The two supernatants were pooled and stored in 1 ml aliquots at -70° C. (for at least 3 months). The supernatant was thawn just before activity measurement and diluted in a 1:15 ratio with PEP buffer. […] The inhibitory effect of compounds was tested under the same conditions in the presence of 100 to 0.001 nM compound.

The values that follow come from patent US6191161A, “Prolylendopeptidase inhibitors” (Chinoin Gyogyszer es Vegyeszeti, priority 1995, dated 2001).

On to `Cc1ccc2c(c1)C(=O)N(CCC(=O)N1CSC[C@H]1C(=O)N1CCSC1)C2=O` [Example 31], for which half-maximal inhibition (IC50) required 0.36 nM.
Turning to `O=C([C@@H]1CSCN1C(=O)CCN1C(=O)c2cccc3cccc(c23)C1=O)N1CCSC1` [Example 123], 0.278 nM corresponded to half-maximal inhibition (IC50).
For `O=C([C@@H]1C[S+]([O-])CN1C(=O)CCCN1C(=O)Nc2ccc([N+](=O)[O-])cc2S1(=O)=O)N1CCCC1` (stereo partly drawn) [Example 171] the value was 0.451 nM.
